Where two headings read alike, the source gives them in different places.
Experiments:
[1] = tested on: Rhizoctonia solani isolate AG-8 and Gaeumannomyces graminis var. tritici (averaged over all fungal inoculation treatments); assay: Field yield of spring wheat after herbicide treatment, averaged over all fungal inoculation treatments; assay type: in vivo; conditions: for Yield: glyphosate (ROUNDUP 0.63 kg/ha) on glyphosate res. wheat, Buctril/Harmony on sensitive wheat, 4-5 leaf stage
Source text: (§1) This example describes the response of glyphosate resistant and glyphosate sensitive spring wheat to inoculation with soil pathogens as judged by wheat yield. Inoculation simulates the green-bridge effect of dying weeds and volunteer in a standing wheat crop. The soil pathogens assessed were: Rhizoctonia solani isolate AG-8 and Gaeumannomyces graminis var. tritici. These pathogenic strains are prevalent in the Pacific Northwest and were isolated from the region. They have been maintained by the Department of Plant Pathology and USDA researchers at Washington State University.
(§2) Near isogenic lines (glyphosate resistant and glyphosate sensitive) of Westbred 926 and Bobwhite were seeded using a no-till drill at three different sites (Lind, Davenport and Pullman, Wash.).
(§3) To introduce the root pathogens into the wheat seed for distribution into the field, oat seeds, autoclaved and sterilized, were inoculated for each soilborne pathogen using isolated pathogen cultures. Oat seeds that were non-inoculated, but sterilized and autoclaved, served as a control. Following two weeks of pathogen growth, the inoculated oat seeds were dried down for 2 days and screened for potential contamination. To establish a green-bridge, a mixture of 15% barley and 20% oat inoculum seeds (by weight) were planted using a small plot no-till drill. One week after planting the introduced green-bridge, the wheat isolines were planted in rows adjacent to the barley green-bridge rows in a randomized, split-plot design, replicated in five randomized blocks. Inoculum treatment served as the main plot, and response to herbicides as the subplot factor.
(§4) This example describes the effect of herbicide treatment on spring wheat, averaged over all disease treatments, planted as described in Example 1. The appropriate herbicide was applied to each trial once the plants reached the 4-5 leaf stage with a custom built hand-pulled sprayer outfitted with a boom with a length of 16 feet with spray shields on the side to minimize drift. In this manner, an entire plot was treated at once with the appropriate herbicide rate. Entries that were resistant to glyphosate were treated with ROUNDUP® brand herbicide (0.63 kg/ha), available from Monsanto, St. Louis, Mo. Herbicide sensitive and resistant entries were treated with a common broadleaf herbicide treatment (Buctril/Harmony) or a no-spray control. Introduced green-bridge barley and any other weeds were manually removed 7-10 days after spray treatment to simulate the time required for ROUNDUP to take effect and maintained weed-free conditions to provide an accurate comparison to commercial weed management strategies needed to assess potential herbicide/disease interactions.

[2] = tested on: Gaeumannomyces graminis var. tritici (Ggt); assay: Field yield of Ggt inoculated spring wheat after herbicide treatment; assay type: in vivo; conditions: for Yield: Ggt inoculated, glyphosate on glyphosate res. wheat, Buctril/Harmony on sensitive wheat
Source text: as §1, §2, §3
as §4, with “interactions. […]” for “interactions.”

R. solani = conditions: cited from earlier work
non-inoculated wheat = assay: Field yield of non-inoculated spring wheat after herbicide treatment; assay type: in vivo; conditions: for Yield: 2002, non-inoculated, glyphosate on glyphosate res. wheat, Buctril/Harmony on sensitive wheat
Source text: as §1, §2, §3
as §4, with “interactions. […]” for “interactions.”

stripe rust = assay: Bobwhite NILs under natural stripe rust infection, Pullman 2002; assay type: in vivo, Puccinia striiformis; conditions: for Yield: Pullman 2002, cultivar Bobwhite (res.)
Source text: as §1, §2, §3, §4
This example describes the effect of herbicides on natural stripe rust infection of NILs of Bobwhite with and without glyphosate tolerance. The wheat was seeded and inoculated with Rhizoctonia and Ggt as described in Example 1. The yield results from the Pullman site are recorded in Table 6.

soybean rust = assay: Suppression of soybean rust on glyphosate resistant soybean lines; assay type: in vivo
Source text: This example describes the suppression of soybean rust using glyphosate treatment of glyphosate resistant soybean varieties.
Two different Roundup Ready soybean lines were used: Line 1 (purple flowers/grey pubescence) and Line 2 (white flowers/grey pubescence). Both lines are glyphosate resistant and have been classified as maturity group 3, with white or purple flowers and grey pubescence. The following treatments were used:
Treatment 1: No glyphosate spray before or after inoculation
Treatment 2: One application of glyphosate (48 oz./A) ([…] of active ingredient) three days before inoculation
Treatment 3: Twice the amount of glyphosate as in Treatment 2 (96 oz./A) ([…] of active ingredient) applied three days before inoculation
Treatment 4: One application of glyphosate (48 oz./A) three days before inoculation, and one application (48 oz./A) (1.5 kg/ha of active ingredient) when symptoms of soybean rust first appeared.
Treatment 5: No glyphosate spray before inoculation, and one application (48 oz./A) (1.5 kg/ha of active ingredient) when symptoms of soybean rust first appeared.

O=C(O)CNCP(=O)(O)O [glyphosate, N-phosphonomethylglycine]
Yield ([1]; Davenport): 28.9 bu/acre
Yield ([1]; Lind): 14.2 bu/acre
Yield ([1]; Pullman): 56.5 bu/acre
grain produced versus glyphosate sensitive NILs treated with Buctril/Harmony Extra or the no spray control ([1]; RoundUp Ready spring wheat, regardless of disease treatment or location): significantly (P=0.001) more grain
yield of glyphosate resistant wheat versus other treatments ([1]; Table 2, each trial): higher yields in each trial
Yield ([2]; Davenport): 28.7 bu/acre
Yield ([2]; Lind): 14.4 bu/acre
Yield ([2]; Pullman): 57.0 bu/acre
yield versus untreated and Buctril/Harmony treated glyphosate sensitive wheat ([2]; glyphosate resistant, Ggt inoculated wheat, each location): significantly superior (P<0.05)
grain yields of glyphosate-sensitive barley under R. solani (R. solani; glyphosate applied in the fall or three weeks prior to planting): no significant yield depression
grain yields of glyphosate-sensitive barley under R. solani (R. solani; glyphosate applied three days before planting): significantly reduced grain yields
Yield (non-inoculated wheat; Davenport): 29.1 bu/acre
Yield (non-inoculated wheat; Lind): 14.2 bu/acre
Yield (non-inoculated wheat; Pullman): 55.6 bu/acre
yield of glyphosate-resistant wheat lines (non-inoculated wheat; in the absence of additional pathogen inoculum): increases yield
stripe rust symptoms (stripe rust; Bobwhite cultivars under severe stripe rust conditions): only moderate stripe rust symptoms
Yield (stripe rust; inoculation Ggt): 49.0 bu/acre
Yield (stripe rust; inoculation None): 44.9 bu/acre
Yield (stripe rust; inoculation Rhizoctonia): 40.0 bu/acre
yields of glyphosate resistant Bobwhite NILs (stripe rust; regardless of what pathogen had been introduced): superior yields
effect on soy rust (soybean rust; treatments 2 and 3: 48 oz./A or 96 oz./A three days before inoculation): dose-dependent effect on soy rust
effect on soybean infected with soy rust (soybean rust; treatments 4 and 5: 48 oz./A when symptoms of soybean rust first appeared): curative effect

From US20130130903A1, “Suppression of Foliar and Soilborne Pathogens” (priority 2003, published 2013)
